According to patent US12084472B2 (Ardelyx, Inc., priority 2015, dated 2024):

The compounds below were run against T1, human TGR5 (Homo sapiens, UniProt Q8TDU6) (assay: Cell-based TGR5 assay (cAMP generation, HTRF)). Details: HEK293 cells stably transfected with human TGR5; cAMP by HTRF; 30 minutes at 37° C.; read-out: pEC50 Human TGR5 (converted).
T1 construct: expressed in transfected cells; host or cells: HEK293
T1 sequence (Q8TDU6 1-330): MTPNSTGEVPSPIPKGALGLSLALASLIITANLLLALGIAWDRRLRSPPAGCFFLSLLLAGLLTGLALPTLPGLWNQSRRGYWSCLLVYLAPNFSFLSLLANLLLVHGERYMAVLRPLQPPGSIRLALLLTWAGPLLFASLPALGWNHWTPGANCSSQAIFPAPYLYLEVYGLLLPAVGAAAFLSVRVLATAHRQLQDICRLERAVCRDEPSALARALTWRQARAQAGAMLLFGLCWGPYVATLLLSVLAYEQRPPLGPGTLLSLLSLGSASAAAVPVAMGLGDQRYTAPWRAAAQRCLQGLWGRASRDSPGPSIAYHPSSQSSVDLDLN
Method in brief: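 First, compounds in 3-fold serial dilution were placed in HBSS with 10 mM HEPES pH 7.4 and 0.5 mM IBMX. Next, human TGR5-expressing HEK293 cells were added and incubated 30 min at 37° C. Finally, cAMP was detected by HTRF and pEC50 derived by logistic fitting.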

| Structure (SMILES) | EC50 [µM] |
| --- | --- |
| Clc1ccc(Cl)c(CNC2(c3cnccc3-c3ccccc3OC3CCOC3)CC2)c1 (centres unmarked) [Compound I-21, N-[(2,5-dichlorophenyl)methyl]-1-{4-[2-(oxolan-3-yloxy)phenyl]pyridin-3-yl}cyclopropan-1-amine] | 0.126 to 1 |
| Cc1cc(COC2(c3cnccc3-c3ccccc3OC3CC3)CC2)c(Cl)cc1CCCCN(CCOCCO)C(=O)NC[C@H](O)[C@@H](O)[C@H](O)[C@H](O)CO [Compound I-117, 1-{4-[5-chloro-4-({1-[4-(2-cyclopropoxyphenyl)pyridin-3-yl]cyclopropoxy}methyl)-2-methylphenyl]butyl}-1-[2-(2-hydroxyethoxy)ethyl]-3-[(2S,3R,4R,5R)-2,3,4,5,6-pentahydroxyhexyl]urea] | < 0.1 |
| Cc1ccc(C(C)CCCC(=O)N(CCC(=O)N(C)C)C[C@H](O)[C@@H](O)[C@H](O)[C@H](O)CO)cc1CNC1(c2cnccc2-c2ccccc2OC2CC2)CC1 (stereo partly drawn) [Compound I-366, 5-{3-[({1-[4-(2-cyclopropoxyphenyl)pyridin-3-yl]cyclopropyl}amino)methyl]-4-methylphenyl}-N-[2-(dimethylcarbamoyl)ethyl]-N-[(2S,3R,4R,5R)-2,3,4,5,6-pentahydroxyhexyl]hexanamide] | 0.126 to 1 |
| O=C(NCCCCc1cc(Cl)c(COC2(c3cnccc3-c3ccccc3OC3CC3)CC2)cc1Cl)[C@@H](O)[C@@H](O)[C@H](O)[C@@H](O)CN1CCOCC1 (stereo in doubt) [Compound I-179, (2S,3S,4R,5S)-N-{4-[2,5-dichloro-4-({1-[4-(2-cyclopropoxyphenyl)pyridin-3-yl]cyclopropoxy}methyl)phenyl]butyl}-2,3,4,5-tetrahydroxy-6-(morpholin-4-yl)hexanamide] | < 0.1 |
| Cc1ccc(C(C)CCCC(=O)N(CCC(N)=O)C[C@H](O)[C@@H](O)[C@H](O)[C@H](O)CO)cc1CNC1(c2cnccc2-c2ccccc2OC2CC2)CC1 (stereo partly drawn) [Compound I-359, N-(2-carbamoylethyl)-5-{3-[({1-[4-(2-cyclopropoxyphenyl)pyridin-3-yl]cyclopropyl}amino)methyl]-4-methylphenyl}-N-[(2S,3R,4R,5R)-2,3,4,5,6-pentahydroxyhexyl]hexanamide] | 0.126 to 1 |
| Cc1cc(COC2(c3cnccc3-c3ccccc3OC3CC3)CC2)c(Cl)cc1CCCCN(C)C(=O)[C@@H](O)[C@@H](O)[C@H](O)[C@@H](O)CO [Compound I-132, (2S,3S,4R,5S)-N-{4-[5-chloro-4-({1-[4-(2-cyclopropoxyphenyl)pyridin-3-yl]cyclopropoxy}methyl)-2-methylphenyl]butyl}-2,3,4,5,6-pentahydroxy-N-methylhexanamide] | < 0.1 |
| O=C1O[C@H]([C@@H](O)[C@H](O)[C@H](O)CO)CN1CCCCc1cc(Cl)c(COC2(c3cnccc3-c3ccccc3OC3CC3)CC2)cc1Cl [Compound I-77, (5S)-3-{4-[2,5-dichloro-4-({1-[4-(2-cyclopropoxyphenyl)pyridin-3-yl]cyclopropoxy}methyl)phenyl]butyl}-5-[(1S,2R,3R)-1,2,3,4-tetrahydroxybutyl]-1,3-oxazolidin-2-one] | < 0.1 |
| O=C(C1CCOCC1)N(CCCCc1cc(Cl)c(COC2(c3cnccc3-c3ccccc3OC3CC3)CC2)cc1Cl)C[C@H](O)[C@@H](O)[C@H](O)[C@H](O)CO [Compound I-67, N-(4-(2,5-dichloro-4-((1-(4-(2-cyclopropoxyphenyl)pyridin-3-yl)cyclopropoxy)methyl)phenyl)butyl)-N-((2S,3R,4R,5R)-2,3,4,5,6-pentahydroxyhexyl)tetrahydro-2H-pyran-4-carboxamide] | < 0.1 |
| CN(C)S(=O)(=O)c1cc(COC2(c3cnccc3-c3ccccc3OC3CC3)CC2)c(Cl)cc1O [Compound I-731, 4-chloro-5-([1-[4-(2-cyclopropoxyphenyl)pyridin-3-yl]cyclopropoxy]methyl)-2-hydroxy-N,N-dimethylbenzene-1-sulfonamide] | < 0.1 |
| C[C@@H](O)CN(CCCCc1cc(Cl)c(COC2(c3cnccc3-c3ccccc3OC3CC3)CC2)cc1Cl)C(=O)[C@@H](O)[C@@H](O)[C@H](O)[C@@H](O)CO [Compound I-214, (2S,3S,4R,5S)-N-{4-[2,5-dichloro-4-({1-[4-(2-cyclopropoxyphenyl)pyridin-3-yl]cyclopropoxy}methyl)phenyl]butyl}-2,3,4,5,6-pentahydroxy-N-[(2R)-2-hydroxypropyl]hexanamide] | < 0.1 |
| Cc1ccc(CCCCNC(=O)NC[C@H](O)[C@@H](O)[C@H](O)[C@H](O)CO)cc1CNC1(c2cnccc2-c2ccccc2OC2CC2)CC1 [Compound I-240, 1-(4-{3-[({1-[4-(2-cyclopropoxyphenyl)pyridin-3-yl]cyclopropyl}amino)methyl]-4-methylphenyl}butyl)-3-[(2S,3R,4R,5R)-2,3,4,5,6-pentahydroxyhexyl]urea] | < 0.1 |
| CSc1ccc(Cl)c(COC2(c3cnccc3-c3ccccc3OC3CC3)CC2)c1 [Compound I-617, 3-(1-{[2-chloro-5-(methylsulfanyl)phenyl]methoxy}cyclopropyl)-4-(2-cyclopropoxyphenyl) pyridine] | < 0.1 |

The remaining lines, values ahead:

| EC50 [µM] | Structure (SMILES) |
| --- | --- |
| < 0.1 | CC(C)(OCc1cc(Cl)ccc1Cl)c1cnccc1-c1ccccc1OC1CC1 [Compound I-740, 4-(2-cyclopropoxyphenyl)-3-(2-((2,5-dichlorobenzyl)oxy)propan-2-yl)pyridine] |
| < 0.1 | C[C@@H](CCCCNC(=O)NC[C@H](O)[C@@H](O)[C@H](O)[C@H](O)CO)c1ccc(Cl)c(CNC2(c3cnccc3-c3ccccc3OC3CC3)CC2)c1 (single isomer, unassigned) [Compound I-255] |
| < 0.1 | O=C(NCCCCC[S+]([O-])c1ccc(Cl)c(COC2(c3cnccc3-c3ccccc3OC3CC3)CC2)c1)[C@@H](O)[C@@H](O)[C@H](O)[C@@H](O)CO (stereo partly drawn) [Compound I-607, (2S,3S,4R,5S)-N-{5-[4-chloro-3-({1-[4-(2-cyclopropoxyphenyl)pyridin-3-yl]cyclopropoxy}methyl)benzenesulfinyl]pentyl}-2,3,4,5,6-pentahydroxyhexanamide] |
| < 0.1 | CC(CCCC(=O)N(C)C[C@H](O)[C@@H](O)[C@H](O)[C@H](O)CO)c1ccc(Cl)c(CNC2(c3cnccc3-c3ccccc3OC3CC3)CC2)c1 (stereo partly drawn) [Compound I-327, 5-{4-chloro-3-[({1-[4-(2-cyclopropoxyphenyl)pyridin-3-yl]cyclopropyl}amino)methyl]phenyl}-N-methyl-N-[(2S,3R,4R,5R)-2,3,4,5,6-pentahydroxyhexyl]hexanamide] |
| < 0.1 | O=C([C@@H](O)[C@@H](O)[C@H](O)[C@@H](O)CO)N(CCCCCSc1ccc(Cl)c(CNC2(c3cnccc3-c3ccccc3OC3CC3)CC2)c1)CCOCCO [Compound I-598, (2S,3S,4R,5S)-N-[5-({4-chloro-3-[({1-[4-(2-cyclopropoxyphenyl)pyridin-3-yl]cyclopropyl}amino)methyl]phenyl}sulfanyl)pentyl]-2,3,4,5,6-pentahydroxy-N-[2-(2-hydroxyethoxy)ethyl]hexanamide] |
| < 0.1 | O=S(=O)(c1ccc(Cl)c(COC2(c3cnccc3-c3ccccc3OC3CC3)CC2)c1)N1CCCCC1 [Compound I-396, 3-(1-{[2-chloro-5-(piperidine-1-sulfonyl)phenyl]methoxy}cyclopropyl)-4-(2-cyclopropoxyphenyl)pyridine] |
| 0.126 to 1 | CN1CCCN(S(=O)(=O)c2ccc(Cl)c(COC3(c4cnccc4-c4ccccc4OC4CC4)CC3)c2)CC1 [Compound I-769, 1-((4-chloro-3-((1-(4-(2-cyclopropoxyphenyl)pyridin-3-yl)cyclopropoxy)methyl)phenyl)sulfonyl)-4-methyl-1,4-diazepane] |
| < 0.1 | CN(CCCCN(C)S(=O)(=O)c1ccc(Cl)c(COC2(c3cnccc3-c3ccccc3OC3CC3)CC2)c1)C(=O)[C@@H](O)[C@@H](O)[C@H](O)[C@@H](O)CO [Compound I-461, (2S,3S,4R,5S)-2,3,4,5,6-pentahydroxy-N-methyl-N-{4-[N-methyl4-chloro-3-({1-[4-(2-cyclopropoxyphenyl)pyridin-3-yl]cyclopropoxy}methyl)benzenesulfonamido]butyl}hexanamide] |
| 0.126 to 1 | O=C(NC[C@H](O)[C@@H](O)[C@H](O)[C@H](O)CO)c1cccc(OCc2ccc(Cl)c(COC3(c4cnccc4-c4ccccc4OC4CC4)CC3)c2)c1 [Compound I-727, 3-((4-chloro-3-((1-(4-(2-cyclopropoxyphenyl)pyridin-3-yl)cyclopropoxy)methyl)benzyl)oxy)-N-((2S,3R,4R,5R)-2,3,4,5,6-pentahydroxyhexyl)benzamide] |
| < 0.1 | CNS(=O)(=O)c1ccc(Cl)c(COC2(c3cnccc3-c3ccccc3OC3CC3)CC2)c1 [Compound I-394, 4-chloro-3-({1-[4-(2-cyclopropoxyphenyl)pyridin-3-yl]cyclopropoxy}methyl)-N-methylbenzene-1-sulfonamide] |
| < 0.1 | Cc1cc(COC2(c3cnccc3-c3ccccc3OC3CC3)CC2)c(Cl)cc1CCCCNC(=O)N[C@@H](C(=O)O)[C@@H](O)[C@H](O)[C@H](O)CO [Compound I-106, (2R,3R,4S,5R)-2-[({4-[5-chloro-4-({1-[4-(2-cyclopropoxyphenyl)pyridin-3-yl]cyclopropoxy}methyl)-2-methylphenyl]butyl}carbamoyl)amino]-3,4,5,6-tetrahydroxyhexanoic acid] |
